Reference: US20080200454A1, “CARBON-LINKED TETRAHYDRO-PYRAZOLO-PYRIDINE MODULATORS OF CATHEPSIN S” (priority 2007, published 2008)
Where two headings read alike, the source gives them in different places.

Biological target: Recombinant human cathepsin S (CatS) (Homo sapiens, UniProt P25774)
Assay: Recombinant human cathepsin S (CatS) inhibition assay, fluorogenic substrate Z-Valine-Valine-Arginine-AMC;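 further: Baculovirus-expressed CatS in pH 5.0 sodium acetate buffer with DTT and NaCl, fluorescence read each minute over 20 min, inhibition derived from rate slope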

Sequence of Recombinant human cathepsin S (CatS) (P25774 115-331): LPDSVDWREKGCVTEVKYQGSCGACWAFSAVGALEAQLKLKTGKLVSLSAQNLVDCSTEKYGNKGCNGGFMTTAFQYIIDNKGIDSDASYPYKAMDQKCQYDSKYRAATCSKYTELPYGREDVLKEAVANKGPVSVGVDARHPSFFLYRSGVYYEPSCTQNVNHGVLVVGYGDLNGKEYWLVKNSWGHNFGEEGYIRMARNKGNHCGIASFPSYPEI

`C[C@H]1COCCN1CCCn1nc(-c2ccc(Cl)c(C#Cc3ccc(CNCc4ccc(Cl)cc4)cc3)c2)c2c1CCN(C(=O)CO)C2` [Example 402, 2-[3-(4-Chloro-3-{[4-({[(4-chlorophenyl)methyl]amino}methyl)phenyl]ethynyl}phenyl)-1-{3-[(3S)-3-methylmorpholin-4-yl]propyl}-1,4,6,7-tetrahydro-5H-pyrazolo[4,3-c]pyridin-5-yl]-2-oxoethanol] showed an IC50 (CatS IC50) of 150 nM.

`CS(=O)(=O)N1CCc2c(c(-c3ccc(Cl)c(C#Cc4nnc5n4CCNC5)c3)nn2CCCN2CCOCC2)C1` [Example 403, 3-({2-Chloro-5-[5-(methylsulfonyl)-1-(3-morpholin-4-ylpropyl)-4,5,6,7-tetrahydro-1H-pyrazolo[4,3-c]pyridin-3-yl]phenyl}ethynyl)-5,6,7,8-tetrahydro[1,2,4]triazolo[4,3-a]pyrazine] was tested, and the IC50 was 8520 nM.

`CS(=O)(=O)N1CCc2c(c(-c3ccc(Cl)c(C#Cc4ccc(CNCc5cccnc5)cc4)c3)nn2CCCN2CCOCC2)C1` [Example 404, 1-[4-({2-Chloro-5-[5-(methylsulfonyl)-1-(3-morpholin-4-ylpropyl)-4,5,6,7-tetrahydro-1H-pyrazolo[4,3-c]pyridin-3-yl]phenyl}ethynyl)phenyl]-N-(pyridin-3-ylmethyl)methanamine] gave an IC50 (CatS IC50) of 370 nM.

With `CS(=O)(=O)N1CCc2c(c(-c3ccc(Cl)c(C#Cc4ccc(CNCc5ccncc5)cc4)c3)nn2CCCN2CCOCC2)C1` [Example 405, 1-[4-({2-Chloro-5-[5-(methylsulfonyl)-1-(3-morpholin-4-ylpropyl)-4,5,6,7-tetrahydro-1H-pyrazolo[4,3-c]pyridin-3-yl]phenyl}ethynyl)phenyl]-N-(pyridin-4-ylmethyl)methanamine] the IC50 (CatS IC50) was 290 nM.

With `CC1C(=O)NCCN1CCCn1nc(-c2ccc(Cl)c(C#Cc3ccc(CNCc4ccc(Cl)cc4)cc3)c2)c2c1CCN(S(C)(=O)=O)C2` (stereo not drawn) [Example 406, 4-{3-[3-(4-Chloro-3-{[4-({[(4-chlorophenyl)methyl]amino}methyl)phenyl]ethynyl}phenyl)-5-(methylsulfonyl)-4,5,6,7-tetrahydro-1H-pyrazolo[4,3-c]pyridin-1-yl]propyl}-3-methylpiperazin-2-one] the IC50 was 460 nM.

In the case of `CS(=O)(=O)N1CCc2c(c(-c3ccc(Cl)c(C#Cc4ccc(CNCc5ccc(Cl)cc5)cc4)c3)nn2CCCN2CCN(c3ccccc3O)CC2)C1` [Example 407, 2-(4-{3-[3-(4-Chloro-3-{[4-({[(4-chlorophenyl)methyl]amino}methyl)phenyl]ethynyl}phenyl)-5-(methylsulfonyl)-4,5,6,7-tetrahydro-1H-pyrazolo[4,3-c]pyridin-1-yl]propyl}piperazin-1-yl)phenol], the IC50 (CatS IC50) is reported as 20 nM.

`CS(=O)(=O)N1CCc2c(c(-c3ccc(Cl)c(C#Cc4ccc(CNCc5ccccn5)cc4)c3)nn2CCCN2CCOCC2)C1` [Example 408, 1-[4-({2-Chloro-5-[5-(methylsulfonyl)-1-(3-morpholin-4-ylpropyl)-4,5,6,7-tetrahydro-1H-pyrazolo[4,3-c]pyridin-3-yl]phenyl}ethynyl)phenyl]-N-(pyridin-2-ylmethyl)methanamine] was tested, and the IC50 (CatS IC50) was 280 nM.

`CS(=O)(=O)N1CCc2c(c(-c3ccc(Cl)c(C#Cc4ccc(CNCc5ccc(Cl)cc5)cc4)c3)nn2CCCN2CCN(c3cccc(O)c3)CC2)C1` [Example 409, 3-(4-{3-[3-(4-Chloro-3-{[4-({[(4-chlorophenyl)methyl]amino}methyl)phenyl]ethynyl}phenyl)-5-(methylsulfonyl)-4,5,6,7-tetrahydro-1H-pyrazolo[4,3-c]pyridin-1-yl]propyl}piperazin-1-yl)phenol] was tested, and the IC50 was 20 nM.

`CS(=O)(=O)N1CCc2c(c(-c3ccc(Cl)c(C#Cc4ccc(CNCc5ccc(Cl)cc5)cc4)c3)nn2CCCN2CCN(c3ccc(O)cc3)CC2)C1` [Example 410, 4-(4-{3-[3-(4-Chloro-3-{[4-({[(4-chlorophenyl)methyl]amino}methyl)phenyl]ethynyl}phenyl)-5-(methylsulfonyl)-4,5,6,7-tetrahydro-1H-pyrazolo[4,3-c]pyridin-1-yl]propyl}piperazin-1-yl)phenol] showed an IC50 of 40 nM.
